This note sets out measurements from US20250093329A1, “SCREENING OF COMPOUNDS” (THE UNIVERSITY OF TULSA, priority 2022, published 2025).

Entries after “also recorded” stand apart in the source; their conditions may differ.

The experiment relates to each cell line tested. Nature of the experiment: ATP levels by CellTiter-Glo, all cell lines of Table 1 taken together. The format is cell-based. As to conditions: Table 1 cell lines. The text has this:
A wide variety of ATP luminescing detection reagents are available commercially. So long as the reagent produces a luminescence in the presence of ATP, the reagent will be suitable for use in the present method. Suitable reagents include but are not limited to any ATP dependent luciferase such as but not limited to firefly luciferase, other modified luciferase based reagents, i.e. luciferase derivatives. According to the rapid method for determining the anti-cancer activity of a compound, a sample of living cells is distributed across a number of testing wells. Typically, 96-well plates are used; however, the number of wells is not critical to the current method. When using a 96-well plate the number of living cells will commonly be about 20,000. […] The sample wells contain a cell growth medium to promote cell health and growth and an additive to prevent bacterial contamination of the wells. One common example of the cell growth medium is DMEM with 10% FBS as described above. One example of the additive to prevent bacterial contamination is a solution of penicillin G and streptomycin referred to commonly as Pen-Strep. The Pen-Strep solution typically contains 5000 units of penicillin G and 5000 micrograms of streptomycin. Thus, the rapid determination of anti-cancer compounds can be carried out using the following method. • The desired number of cells are distributed in a 96-well plate containing 100 μL DMEM plus 10% FBS with optional Pen-Strep. • After 24 hours, cells are treated with the compound of interest or a 5% solution of dimethyl sulfoxide (DMSO) in water as a control. • The time period for exposure to the compound of interest and the DMSO control will vary depending on the luminescing detection reagent. However, when using a commercially available reagent such as resazurin (CellTiter Blue commercially available from Promega) or luciferase or a luciferase derivative (CellTiter Glo commercially available from Promega) the time period can be readily determined with reference to literature from the commercial source. Other luminescing detection agents can also be used with minimal experimentation to determine the desired compound exposure time. • Upon completion of the time period for exposure to the compound of interest or the DMSO, 10 μL of the luminescing detection reagent is added and the cells are lysed by a detergent added along with the luminescing detection reagent. • When the reagent is resazurin, as found in CellTiter-Blue the time period for exposure to the compound of interest and the DMSO will be about 24 hours. • When the reagent is luciferase or a luciferase derivative as found in CellTiter-Glo the time period for exposure to the compound of interest and the DMSO will be about 30 minutes to four hours. • The luminescing detection reagent is added over a period of time. • When using resazurin, the time period for the addition of the 10 μl volume takes place over a period of about one to four hours. • When using luciferase or a luciferase derivative, the time period is about 3 minutes to about 7 minutes, typically about 5 minutes. • During the time period of addition of the luminescing detection reagent the resulting luminescence is measured using conventional methods and devices. […] If the compound of interest deactivates the cell, then the cell produces less or no ATP. As a result, the cells in the well treated with the compound of interest will have a lower luminescence value as compared to the cells in wells treated with DMSO. • The value for the cells treated with the compound of interest is reported as a “percent of control” (POC) value. The determination of POC is calculated by dividing the averaged response from duplicate wells containing the cells as treated with the compound of interest by the average response of duplicate control wells which contain only cells and DMSO (in other words, a blank control experiment). […]
A general note: In ATP-based viability assays light output follows the ATP content of the culture.

For the molecule `O=S(=O)(NCc1c[nH]c2ccccc12)c1ccc(Cl)cc1` [Compound 2, N-[(1H-indol-3-yl)methyl]-4-chlorobenzenesulfonamide], the “reduction in luminescence (reduced ATP) across the cell lines, compound alone” value (100 μM compound alone) is “reduction in luminescence”. Also, the “effectiveness across the cell lines, with 2-DG” value (100 μM compound with 2-DG) is given as “effectiveness against each cell line; also recorded: remarkable effectiveness”.
